Blank lines part the entries; values can stand above or below the molecule they belong to.
How the values were obtained:
Cannabinoid receptor 2 = Cannabinoid receptor 2 (Homo sapiens, UniProt P34972); experiment: Inverse agonist activity at human CB2 receptor transfected in HEK293 cells assessed as increase of forskolin-induced cAMP production incubated for 30 mins followed by d2 labeled cAMP addition measured after 60 mins by HTRF assay; assay type: functional, cell-based
[1] = Plasma concentration in C57BL/6J mouse at 30 mg/kg, po measured at 4 hrs; assay type: ADME, organism-based
Cannabinoid receptor 1 = Cannabinoid receptor 1 (Homo sapiens, UniProt P21554); experiment: Inverse agonist activity at human CB1 receptor transfected in HEK293 cells assessed as increase of forskolin-induced cAMP production incubated for 30 mins followed by d2 labeled cAMP addition measured after 60 mins by HTRF assay; assay type: functional, cell-based
Sequence of Cannabinoid receptor 1 (P21554 whole entry): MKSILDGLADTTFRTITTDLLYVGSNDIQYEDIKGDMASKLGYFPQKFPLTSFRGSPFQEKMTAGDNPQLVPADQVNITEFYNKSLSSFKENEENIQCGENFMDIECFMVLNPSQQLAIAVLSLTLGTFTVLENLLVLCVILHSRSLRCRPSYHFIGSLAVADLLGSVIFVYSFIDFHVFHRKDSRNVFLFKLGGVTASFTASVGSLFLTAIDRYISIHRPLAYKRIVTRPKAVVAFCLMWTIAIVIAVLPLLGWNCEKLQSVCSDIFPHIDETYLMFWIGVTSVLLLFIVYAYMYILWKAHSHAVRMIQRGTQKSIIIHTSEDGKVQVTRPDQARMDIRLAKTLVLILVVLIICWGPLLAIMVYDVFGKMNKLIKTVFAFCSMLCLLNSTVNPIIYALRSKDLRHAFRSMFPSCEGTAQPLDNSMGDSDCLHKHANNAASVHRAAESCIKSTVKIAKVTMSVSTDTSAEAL

[2] = Drug uptake in C57BL/6J mouse brain at 30 mg/kg, po measured at 4 hrs; assay type: ADME, organism-based; settings: read-out: Drug uptake
[3] = Ratio of drug level in brain to plasma in C57BL/6J mouse at 20 mg/kg, po measured at 4 hrs; assay type: ADME, organism-based; settings: read-out: BPR
[4] = Drug uptake in C57BL/6J mouse brain at 20 mg/kg, po measured at 4 hrs; assay type: ADME, organism-based; settings: for Drug uptake: in vivo, 4 h
[5] = Plasma concentration in C57BL/6J mouse at 20 mg/kg, po measured at 4 hrs; assay type: ADME, organism-based
[6] = Plasma concentration in C57BL/6J mouse at 20 mg/kg, po measured at 2 hrs; assay type: ADME, organism-based
[7] = Drug uptake in C57BL/6J mouse brain at 20 mg/kg, po measured at 2 hrs; assay type: ADME, organism-based; settings: for Drug uptake: in vivo, 2 h; for concentration at 2 h: C57BL/6J, brain, read-out: Drug uptake
[8] = Ratio of drug level in brain to plasma in C57BL/6J mouse at 20 mg/kg, po measured at 2 hrs; assay type: ADME, organism-based; settings: read-out: BPR
[9] = Ratio of drug level in brain in C57BL/6J mouse at 20 mg/kg, po measured at 4 hrs to drug level in plasma in C57BL/6J mouse at 20 mg/kg, po measured at 2 hrs; assay type: ADME, organism-based; settings: read-out: BPR

Sequence of Cannabinoid receptor 2 (P34972 whole entry): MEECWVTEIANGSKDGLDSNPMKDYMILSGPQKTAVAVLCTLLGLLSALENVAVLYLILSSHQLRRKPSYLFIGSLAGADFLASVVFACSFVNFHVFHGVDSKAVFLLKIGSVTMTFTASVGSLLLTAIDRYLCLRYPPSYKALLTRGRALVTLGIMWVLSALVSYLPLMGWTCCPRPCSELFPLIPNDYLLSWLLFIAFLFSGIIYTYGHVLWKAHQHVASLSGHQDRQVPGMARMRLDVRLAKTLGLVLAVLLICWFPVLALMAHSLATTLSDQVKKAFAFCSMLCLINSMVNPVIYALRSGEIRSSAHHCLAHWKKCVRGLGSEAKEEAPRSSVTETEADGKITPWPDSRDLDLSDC

SMILES: C[C@@H](NC(=O)c1nn(-c2ccc(Cl)cc2Cl)c2c1CN(C(=O)CC(N)=O)C/C2=C\c1ccc(F)cc1)c1ccccn1
- EC50 (Cannabinoid receptor 2): > 10000 nM
- concentration at 4 h [1]: 2290 nM
- EC50 (Cannabinoid receptor 1): 9 nM
- concentration at 4 h [2]: < 5 ng/mL

SMILES: C[C@@H](NC(=O)c1nn(-c2ccc(Cl)cc2)c2c1CN(C(=O)CNS(C)(=O)=O)C/C2=C\c1ccc(F)cc1)c1ccccn1
- Kp at 4 h [3]: 0.05
- EC50 (Cannabinoid receptor 2): > 10000 nM
- EC50 (Cannabinoid receptor 1): 30 nM
- Drug uptake [4]: 0.09 nmol/g
- concentration at 4 h [5]: 1720 nM

SMILES: C[C@@H](NC(=O)c1nn(-c2ccc(Cl)c(Cl)c2)c2c1CN(C(=O)Cn1cncn1)C/C2=C\c1ccc(Cl)cc1)c1ccccn1
- Kp at 4 h [3]: 0.08
- EC50 (Cannabinoid receptor 2): 7850 nM
- EC50 (Cannabinoid receptor 1): 6 nM
- Drug uptake [4]: 0.35 nmol/g
- concentration at 4 h [5]: 4600 nM

SMILES: C[C@@H](NC(=O)c1nn(-c2ccc(Cl)cc2Cl)c2c1CN(C(=O)CNS(C)(=O)=O)C/C2=C\c1ccc(Cl)cc1)c1ccccn1
- Kp at 4 h [3]: 0.05
- EC50 (Cannabinoid receptor 2): > 10000 nM
- EC50 (Cannabinoid receptor 1): 17 nM
- Drug uptake [4]: 0.17 nmol/g
- concentration at 4 h [5]: 3320 nM

SMILES: C[C@@H](NC(=O)c1nn(-c2ccc(Cl)cc2)c2c1CN(C(=O)c1nc[nH]n1)C/C2=C\c1ccc(F)cc1)c1ccccc1
- concentration at 2 h [6]: 1320 nM
- Drug uptake [7]: 0.09 nmol/g
- EC50 (Cannabinoid receptor 2): > 10000 nM
- EC50 (Cannabinoid receptor 1): 12 nM
- Kp at 2 h [8]: 0.07

SMILES: COc1ccc(/C=C2\CN(C(=O)c3cc[nH]n3)Cc3c(C(=O)N[C@H](C)c4ccccc4)nn(-c4ccc(Cl)cc4Cl)c32)cc1
- concentration at 2 h [6]: 1720 nM
- concentration at 2 h [7]: < 5 ng/mL
- EC50 (Cannabinoid receptor 2): 4660 nM
- EC50 (Cannabinoid receptor 1): 32 nM

SMILES: COc1ccc(/C=C2\CN(C(=O)CN)Cc3c(C(=O)N[C@H](C)c4ccccc4)nn(-c4ccc(Cl)cc4Cl)c32)cc1
- Kp at 4 h [3]: 0.04
- EC50 (Cannabinoid receptor 2): > 10000 nM
- EC50 (Cannabinoid receptor 1): 24 nM
- Drug uptake [4]: 0.07 nmol/g
- concentration at 4 h [5]: 1530 nM

SMILES: C[C@@H](NC(=O)c1nn(-c2ccc(Cl)cc2)c2c1CN(C(=O)c1nc[nH]n1)C/C2=C\c1ccc(Cl)cc1)c1ccccc1
- concentration at 2 h [6]: 9780 nM
- Drug uptake [7]: 0.47 nmol/g
- EC50 (Cannabinoid receptor 2): > 10000 nM
- EC50 (Cannabinoid receptor 1): 17 nM
- Kp at 2 h [8]: 0.05

SMILES: COc1ccc(/C=C2\CN(C(=O)Cn3ccnc3)Cc3c(C(=O)N[C@H](C)c4ccccc4)nn(-c4ccc(Cl)cc4Cl)c32)cc1
- concentration at 2 h [6]: 580 nM
- concentration at 2 h [7]: < 5 ng/mL
- EC50 (Cannabinoid receptor 2): 370 nM
- EC50 (Cannabinoid receptor 1): 5 nM

SMILES: C[C@@H](NC(=O)c1nn(-c2ccc(Cl)c(Cl)c2)c2c1CN(C(=O)Cn1cnnn1)C/C2=C\c1ccc(F)cc1)c1ccccn1
- Kp at 4 h [3]: 0.05
- EC50 (Cannabinoid receptor 2): 3660 nM
- EC50 (Cannabinoid receptor 1): 7 nM
- Drug uptake [4]: 0.15 nmol/g
- concentration at 4 h [5]: 2820 nM

SMILES: C[C@@H](NC(=O)c1nn(-c2ccc(Cl)cc2Cl)c2c1CN(C(=O)CCC(N)=O)C/C2=C\c1ccc(F)cc1)c1ccccn1
- Kp at 4 h [3]: 0.03
- EC50 (Cannabinoid receptor 2): > 10000 nM
- EC50 (Cannabinoid receptor 1): 20 nM
- Drug uptake [4]: 0.12 nmol/g
- concentration at 4 h [5]: 4250 nM

SMILES: C[C@@H](NC(=O)c1nn(-c2ccc(Cl)cc2Cl)c2c1CN(C(=O)Cn1cnnn1)C/C2=C\c1ccc(F)cc1)c1ccccn1
- Kp at 4 h [3]: 0.03
- EC50 (Cannabinoid receptor 2): 8610 nM
- EC50 (Cannabinoid receptor 1): 6 nM
- Drug uptake [4]: 0.07 nmol/g
- concentration at 4 h [5]: 2280 nM

SMILES: C[C@@H](NC(=O)c1nn(-c2ccc(Cl)cc2Cl)c2c1CN(C(=O)c1nc[nH]n1)C/C2=C\c1ccc(F)cc1)c1ccccc1
- concentration at 2 h [6]: 4480 nM
- Drug uptake [7]: 0.25 nmol/g
- EC50 (Cannabinoid receptor 2): 1310 nM
- EC50 (Cannabinoid receptor 1): 15 nM
- Kp at 2 h [8]: 0.06

SMILES: C[C@@H](NC(=O)c1nn(-c2ccc(Cl)cc2)c2c1CN(C(=O)c1nc[nH]n1)C/C2=C\c1ccc(Cl)cc1)c1ccccn1
- concentration at 2 h [6]: 2380 nM
- Drug uptake [7]: 0.1 nmol/g
- EC50 (Cannabinoid receptor 2): > 10000 nM
- EC50 (Cannabinoid receptor 1): 28 nM
- Kp at 2 h [8]: 0.04

SMILES: C[C@@H](NC(=O)c1nn(-c2ccc(Cl)cc2Cl)c2c1CN(C(=O)[C@@H](O)CO)C/C2=C\c1ccc(Cl)cc1)c1ccccn1
- Kp at 4 h [3]: 0.08
- EC50 (Cannabinoid receptor 2): 5550 nM
- EC50 (Cannabinoid receptor 1): 22 nM
- Drug uptake [4]: 0.18 nmol/g
- concentration at 4 h [5]: 2410 nM

More lines, in order of falling EC50 (Cannabinoid receptor 2), values ahead:

- concentration at 2 h [6]: 9190 nM
- EC50 (Cannabinoid receptor 2): 3240 nM
- EC50 (Cannabinoid receptor 1): 8 nM
- Drug uptake [4]: 0.43 nmol/g
- Kp [9]: 0.05
SMILES: C[C@@H](NC(=O)c1nn(-c2ccc(Cl)cc2Cl)c2c1CN(C(=O)Cn1cnnn1)C/C2=C\c1ccc(F)cc1)c1ccccc1

- Kp at 4 h [3]: 0.06
- EC50 (Cannabinoid receptor 2): 2910 nM
- EC50 (Cannabinoid receptor 1): 18 nM
- Drug uptake [4]: 0.17 nmol/g
- concentration at 4 h [5]: 2770 nM
SMILES: C[C@@H](NC(=O)c1nn(-c2ccc(Cl)cc2Cl)c2c1CN(C(=O)[C@@H](O)CO)C/C2=C\c1ccc(Cl)cc1)c1ccccc1

- EC50 (Cannabinoid receptor 2): 1940 nM
- EC50 (Cannabinoid receptor 1): 11 nM
- concentration at 4 h ([4]; C57BL/6J, brain, read-out: Drug uptake): < 5 ng/mL
- concentration at 4 h [5]: 90 nM
SMILES: COc1ccc(/C=C2\CN(C(=O)CC(=O)O)Cc3c(C(=O)N[C@H](C)c4ccccn4)nn(-c4ccc(Cl)cc4Cl)c32)cc1

- concentration at 2 h [6]: 1480 nM
- Drug uptake [7]: 0.05 nmol/g
- EC50 (Cannabinoid receptor 2): 1760 nM
- EC50 (Cannabinoid receptor 1): 15 nM
- Kp at 2 h [8]: 0.03
SMILES: COc1ccc(/C=C2\CN(C(=O)c3nc[nH]n3)Cc3c(C(=O)N[C@H](C)c4ccccc4)nn(-c4ccc(Cl)cc4Cl)c32)cc1

- Kp at 4 h [3]: 0.04
- EC50 (Cannabinoid receptor 2): 1450 nM
- EC50 (Cannabinoid receptor 1): 8 nM
- Drug uptake [4]: 0.08 nmol/g
- concentration at 4 h [5]: 2090 nM
SMILES: COc1ccc(/C=C2\CN(C(=O)CS(N)(=O)=O)Cc3c(C(=O)N[C@H](C)c4ccccn4)nn(-c4ccc(Cl)cc4Cl)c32)cc1

- concentration at 2 h [6]: 30 nM
- concentration at 2 h [7]: < 5 ng/mL
- EC50 (Cannabinoid receptor 2): 1270 nM
- EC50 (Cannabinoid receptor 1): 4 nM
SMILES: COc1ccc(/C=C2\CN(C(=O)Cn3ccnn3)Cc3c(C(=O)N[C@H](C)c4ccccc4)nn(-c4ccc(Cl)cc4Cl)c32)cc1

- concentration at 2 h [6]: 2960 nM
- Drug uptake [7]: 0.07 nmol/g
- EC50 (Cannabinoid receptor 2): 1130 nM
- EC50 (Cannabinoid receptor 1): 6 nM
- Kp at 2 h [8]: 0.02
SMILES: COc1ccc(/C=C2\CN(C(=O)Cn3cnnn3)Cc3c(C(=O)N[C@H](C)c4ccccc4)nn(-c4ccc(Cl)cc4Cl)c32)cc1

- Kp at 4 h [3]: 0.04
- EC50 (Cannabinoid receptor 2): 650 nM
- EC50 (Cannabinoid receptor 1): 6 nM
- Drug uptake [4]: 0.05 nmol/g
- concentration at 4 h [5]: 1360 nM
SMILES: COc1ccc(/C=C2\CN(C(=O)CCS(N)(=O)=O)Cc3c(C(=O)N[C@H](C)c4ccccn4)nn(-c4ccc(Cl)cc4Cl)c32)cc1

— ChEMBL document CHEMBL3862001, “Tetrahydropyrazolo[4,3-c]pyridine derivatives as potent and peripherally selective cannabinoid-1 (CB1) receptor inverse agonists” (Bioorg Med Chem Lett, 2016)
